{"source": "paper PMC10502144", "about": "“Anti-methicillin-resistant Staphylococcus aureus activity and safety evaluation of 14-O-[(5-ethoxycarbonyl-4,6-dimethylpyrimidine-2-yl) thioacetyl] mutilin (EDT)” (Scientific Reports, 2023)", "key": {"[1]": {"assay": "Cytotoxicity assay (CCK-8), HEK293T", "format": "cell-based", "conditions": "human, HEK293T cells", "experimental": "Cytotoxicity of EDT and tiamulin was studied against human hepatocellular carcinoma cells (HepG2) and human embryonic kidney 293T (HEK293T) cells following a protocol as published in our earlier reports[41],[42]. Cells were counted and inoculated into 96-well plates with approximately10^5 cells density for incubating 24 h at 37 °C. […] The same procedure was repeated three times. The percentages of cell viability were calculated by the formula: Cell viability (%) = [Asample ‒ Anegative]/[Apositve ‒ Anegative] × 100%."}, "[2]": {"system": "Salmonella Typhimurium TA98", "assay": "Ames test, TA98", "experimental": "(§1) Before the test, Salmonella Typhimurium (S. Typhimurium) TA97a, TA98, TA100, TA102, TA1535 and Escherichia coli WP2uvrA pKM101 (pKM101) were first checked for their genetic integrity, including biotin dependence, rfa marker (crystal violet), biotin, histidine dependence and presence of the plasmid pKM101 (ampicillin resistance) or pAQ1 (tetracycline resistance). […] The maximum concentration of EDT was also screened using a preliminary experiment.\n(§2) DMSO (0.1 mL) was directly incorporated into 1.9 mL melted top agar as the vehicle control. […] Each strain (0.1 mL, 6–7 log10 CFU/mL) was added into 2 mL of top agar in which comprised 0.5 mL S9 (10%), serial concentrations of EDT (2000, 400, 80, 16 and 3.2 μg/plate), DMSO or control chemicals for testing with the S9. For testing without S9, 0.5 mL phosphate buffer saline (PBS, pH 7.4) replaced the S9 mix. Then, the obtained top agar was melted, poured onto the surface of […] and swirled to distribute the top agar to all surfaces of medium, followed by incubation at 37 °C for 48 h. The resultant colonies were counted manually as the number of revertant colonies per plate. The experiments were performed in triplicate and the results were expressed as the average ± SD."}, "[3]": {"system": "Salmonella Typhimurium TA102", "assay": "Ames test, TA102", "experimental": "as §1, §2"}, "[4]": {"system": "Salmonella Typhimurium TA1535", "experimental": "as §1, §2"}, "CYP1A2": {"target": "T1, CYP1A2 (Rattus norvegicus, UniProt P04799)", "T1 construct": "from tissue; host or cells: rat liver microsomes", "T1 sequence (P04799 1-513)": "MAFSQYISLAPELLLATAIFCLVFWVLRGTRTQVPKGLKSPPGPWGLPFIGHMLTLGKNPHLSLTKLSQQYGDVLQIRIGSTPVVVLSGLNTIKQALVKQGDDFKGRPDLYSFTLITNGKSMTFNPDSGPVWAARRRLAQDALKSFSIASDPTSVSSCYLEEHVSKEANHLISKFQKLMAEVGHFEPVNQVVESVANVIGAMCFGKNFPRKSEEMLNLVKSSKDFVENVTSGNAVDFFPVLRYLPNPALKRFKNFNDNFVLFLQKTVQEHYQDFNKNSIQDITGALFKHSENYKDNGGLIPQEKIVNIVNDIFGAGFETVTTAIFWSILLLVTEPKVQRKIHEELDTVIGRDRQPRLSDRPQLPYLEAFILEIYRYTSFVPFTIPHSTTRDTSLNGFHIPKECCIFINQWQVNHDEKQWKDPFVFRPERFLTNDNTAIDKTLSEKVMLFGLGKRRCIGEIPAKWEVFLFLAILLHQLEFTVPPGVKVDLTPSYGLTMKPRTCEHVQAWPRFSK", "assay": "CYP450 inhibition in liver microsomes, probe substrate", "format": "biochemical", "conditions": "30 min", "experimental": "(§3) Inhibition effects of EDT on cytochrome P450 were evaluated with rat liver microsomes in vitro[43]. Briefly, 12.8 mg EDT was dissolved in methanol and stored at 4 °C as reserve solution. A variety of specific probe substrate (1 μL), EDT solution (1 μL), incubation mixture (193 μL) in which contained glucose-6-phosphate, glucose-6-phosphate dehydrogenase, potassium phosphate buffer, magnesium chloride buffer and PBS buffer, were added into 5 μL liver microsomes to start the reaction at 37 °C. The final concentration of EDT in each group was 0.1, 1, 5, 10, 50, 100 μM. After 30 min, the reaction was terminated by adding the same volume of pre-cooled acetonitrile into the incubation system. After centrifugation for 10 min (8000×g at 4 °C), 10 μL supernatant was removed to analyze the metabolites of specific probe substrate by HPLC. The effects of EDT on CYP450 subtypes were evaluated using formula as follow: (1 − Cn/C0) × 100%, where Cn was substrate metabolite of different concentration of EDT, and C0 was metabolite of blank group."}, "CYP2A6": {"system": "CYP2A6", "assay": "CYP450 inhibition in liver microsomes, probe substrate", "format": "biochemical", "conditions": "CYP2A6, rat liver microsomes", "experimental": "as §3"}, "CYP2C19": {"system": "CYP2C19", "assay": "CYP450 inhibition in liver microsomes, probe substrate", "format": "biochemical", "conditions": "CYP2C19, rat liver microsomes", "experimental": "as §3"}, "CYP2C9": {"system": "CYP2C9", "assay": "CYP450 inhibition in liver microsomes, probe substrate", "format": "biochemical", "conditions": "CYP2C9, rat liver microsomes", "experimental": "as §3"}, "CYP2D6": {"system": "CYP2D6", "assay": "CYP450 inhibition in liver microsomes, probe substrate", "format": "biochemical", "conditions": "CYP2D6, rat liver microsomes", "experimental": "as §3"}, "CYP2E1": {"target": "T2, CYP2E1 (Rattus norvegicus, UniProt P05182)", "T2 construct": "from tissue; host or cells: rat liver microsomes", "T2 sequence (P05182 whole entry)": "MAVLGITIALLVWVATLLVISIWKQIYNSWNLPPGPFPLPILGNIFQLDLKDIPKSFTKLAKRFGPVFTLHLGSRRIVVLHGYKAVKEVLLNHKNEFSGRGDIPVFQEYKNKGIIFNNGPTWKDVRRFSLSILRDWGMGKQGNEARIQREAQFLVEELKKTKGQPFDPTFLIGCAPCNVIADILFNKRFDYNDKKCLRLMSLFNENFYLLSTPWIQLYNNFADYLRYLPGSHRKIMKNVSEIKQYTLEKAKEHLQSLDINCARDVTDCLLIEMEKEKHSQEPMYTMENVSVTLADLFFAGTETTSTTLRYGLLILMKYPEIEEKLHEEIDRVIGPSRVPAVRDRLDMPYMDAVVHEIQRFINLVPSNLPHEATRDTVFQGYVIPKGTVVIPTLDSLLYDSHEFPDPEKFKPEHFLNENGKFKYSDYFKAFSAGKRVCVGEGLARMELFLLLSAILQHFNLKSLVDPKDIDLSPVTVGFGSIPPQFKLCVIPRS", "assay": "CYP450 inhibition in liver microsomes, probe substrate", "format": "biochemical", "conditions": "30 min", "experimental": "as §3"}, "CYP3A4": {"system": "CYP3A4", "assay": "CYP450 inhibition in liver microsomes, probe substrate", "format": "biochemical", "conditions": "CYP3A4, rat liver microsomes", "experimental": "as §3"}}, "note": "Read-outs that look alike come from different tables or passages of the source."}
{"smiles": "C=CC1(C)CC(OC(=O)CSc2nc(C)c(C(=O)OCC)c(C)n2)C2(C)C(C)CCC3(CCC(=O)C32)C(C)C1O", "note": "(stereo not drawn) [EDT, 14-O-[(5-ethoxycarbonyl-4,6-dimethylpyrimidine-2-yl)thioacetyl] mutilin]", "values": [{"measurement": "CC50 at 6 h", "setting": "[1]; 200 μM converted to μg/mL", "result": "> 115", "unit": "µg/mL"}, {"measurement": "CC50 at 6 h", "setting": "[1]; deduced from Fig. 5", "result": "> 200", "unit": "µM"}, {"measurement": "number of revertant colonies per plate", "setting": "[2]; TA98, 3.2 μg/plate, +S9", "result": "22.00 ± 2.00"}, {"measurement": "number of revertant colonies per plate", "setting": "[2]; TA98, 3.2 μg/plate, −S9", "result": "21.67 ± 1.67"}, {"measurement": "number of revertant colonies per plate", "setting": "[2]; TA98, 16 μg/plate, +S9", "result": "24.00 ± 4.00"}, {"measurement": "number of revertant colonies per plate", "setting": "[2]; TA98, 16 μg/plate, −S9", "result": "23.33 ± 2.67"}, {"measurement": "number of revertant colonies per plate", "setting": "[2]; TA98, 80 μg/plate, +S9", "result": "19.00 ± 3.00"}, {"measurement": "number of revertant colonies per plate", "setting": "[2]; TA98, 80 μg/plate, −S9", "result": "23.33 ± 2.67"}, {"measurement": "number of revertant colonies per plate", "setting": "[2]; TA98, 400 μg/plate, +S9", "result": "25.00 ± 4.00"}, {"measurement": "number of revertant colonies per plate", "setting": "[2]; TA98, 400 μg/plate, −S9", "result": "26.67 ± 3.33"}, {"measurement": "number of revertant colonies per plate", "setting": "[2]; TA98, 2000 μg/plate, +S9", "result": "29.67 ± 2.33"}, {"measurement": "number of revertant colonies per plate", "setting": "[2]; TA98, 2000 μg/plate, −S9", "result": "32.33 ± 3.67"}, {"measurement": "number of revertant colonies per plate", "setting": "[3]; TA102, 3.2 μg/plate, +S9", "result": "214.33 ± 14.67"}, {"measurement": "number of revertant colonies per plate", "setting": "[3]; TA102, 3.2 μg/plate, −S9", "result": "208.00 ± 15.00"}, {"measurement": "number of revertant colonies per plate", "setting": "[3]; TA102, 16 μg/plate, +S9", "result": "218.00 ± 9.00"}, {"measurement": "number of revertant colonies per plate", "setting": "[3]; TA102, 16 μg/plate, −S9", "result": "205.00 ± 11.00"}, {"measurement": "number of revertant colonies per plate", "setting": "[3]; TA102, 80 μg/plate, +S9", "result": "223.67 ± 17.33"}, {"measurement": "number of revertant colonies per plate", "setting": "[3]; TA102, 80 μg/plate, −S9", "result": "209.33 ± 13.67"}, {"measurement": "number of revertant colonies per plate", "setting": "[3]; TA102, 400 μg/plate, +S9", "result": "219.67 ± 18.33"}, {"measurement": "number of revertant colonies per plate", "setting": "[3]; TA102, 400 μg/plate, −S9", "result": "211.00 ± 14.00"}, {"measurement": "number of revertant colonies per plate", "setting": "[3]; TA102, 2000 μg/plate, +S9", "result": "236.33 ± 19.67"}, {"measurement": "number of revertant colonies per plate", "setting": "[3]; TA102, 2000 μg/plate, −S9", "result": "228.00 ± 16.00"}, {"measurement": "number of revertant colonies per plate", "setting": "[4]; TA1535, 3.2 μg/plate, +S9", "result": "21.00 ± 4.00"}, {"measurement": "number of revertant colonies per plate", "setting": "[4]; TA1535, 3.2 μg/plate, −S9", "result": "19.67 ± 1.33"}, {"measurement": "number of revertant colonies per plate", "setting": "[4]; TA1535, 16 μg/plate, +S9", "result": "27.00 ± 2.00"}, {"measurement": "number of revertant colonies per plate", "setting": "[4]; TA1535, 16 μg/plate, −S9", "result": "23.33 ± 1.67"}, {"measurement": "number of revertant colonies per plate", "setting": "[4]; TA1535, 80 μg/plate, +S9", "result": "25.00 ± 4.00"}, {"measurement": "number of revertant colonies per plate", "setting": "[4]; TA1535, 80 μg/plate, −S9", "result": "23.33 ± 2.67"}, {"measurement": "number of revertant colonies per plate", "setting": "[4]; TA1535, 400 μg/plate, +S9", "result": "26.00 ± 3.00"}, {"measurement": "number of revertant colonies per plate", "setting": "[4]; TA1535, 400 μg/plate, −S9", "result": "23.33 ± 2.67"}, {"measurement": "number of revertant colonies per plate", "setting": "[4]; TA1535, 2000 μg/plate, +S9", "result": "19.33 ± 3.67"}, {"measurement": "number of revertant colonies per plate", "setting": "[4]; TA1535, 2000 μg/plate, −S9", "result": "17.67 ± 2.33"}, {"measurement": "IC50", "setting": "CYP1A2", "result": "> 100", "unit": "µM"}, {"measurement": "IC50 at 30 min", "setting": "CYP2A6", "result": "> 100", "unit": "µM"}, {"measurement": "IC50 at 30 min", "setting": "CYP2C19", "result": "> 100", "unit": "µM"}, {"measurement": "IC50 at 30 min", "setting": "CYP2C9", "result": "> 100", "unit": "µM"}, {"measurement": "IC50 at 30 min", "setting": "CYP2D6", "result": "> 100", "unit": "µM"}, {"measurement": "IC50", "setting": "CYP2E1", "result": 88.5, "unit": "µM"}, {"measurement": "IC50 at 30 min", "setting": "CYP3A4", "result": 9.25, "unit": "µM"}]}
